{
  "source": "patent US20240075087A1",
  "about": "“COMPOSITIONS AND METHODS COMPRISING HEMP EXTRACT FOR THE TREATMENT OF ANIMALS IN NEED” (Portland Technology Holdings LLC, priority 2021, published 2024)",
  "key": {"[1]": {"biological_target": "T1, canine P-glycoprotein (Canis lupus familiaris, UniProt C0KKU9)", "T1 construct": "host or cells: MDCK PGP cells (canine P-gp expressing cell line)", "T1 sequence (C0KKU9 1-1281)": "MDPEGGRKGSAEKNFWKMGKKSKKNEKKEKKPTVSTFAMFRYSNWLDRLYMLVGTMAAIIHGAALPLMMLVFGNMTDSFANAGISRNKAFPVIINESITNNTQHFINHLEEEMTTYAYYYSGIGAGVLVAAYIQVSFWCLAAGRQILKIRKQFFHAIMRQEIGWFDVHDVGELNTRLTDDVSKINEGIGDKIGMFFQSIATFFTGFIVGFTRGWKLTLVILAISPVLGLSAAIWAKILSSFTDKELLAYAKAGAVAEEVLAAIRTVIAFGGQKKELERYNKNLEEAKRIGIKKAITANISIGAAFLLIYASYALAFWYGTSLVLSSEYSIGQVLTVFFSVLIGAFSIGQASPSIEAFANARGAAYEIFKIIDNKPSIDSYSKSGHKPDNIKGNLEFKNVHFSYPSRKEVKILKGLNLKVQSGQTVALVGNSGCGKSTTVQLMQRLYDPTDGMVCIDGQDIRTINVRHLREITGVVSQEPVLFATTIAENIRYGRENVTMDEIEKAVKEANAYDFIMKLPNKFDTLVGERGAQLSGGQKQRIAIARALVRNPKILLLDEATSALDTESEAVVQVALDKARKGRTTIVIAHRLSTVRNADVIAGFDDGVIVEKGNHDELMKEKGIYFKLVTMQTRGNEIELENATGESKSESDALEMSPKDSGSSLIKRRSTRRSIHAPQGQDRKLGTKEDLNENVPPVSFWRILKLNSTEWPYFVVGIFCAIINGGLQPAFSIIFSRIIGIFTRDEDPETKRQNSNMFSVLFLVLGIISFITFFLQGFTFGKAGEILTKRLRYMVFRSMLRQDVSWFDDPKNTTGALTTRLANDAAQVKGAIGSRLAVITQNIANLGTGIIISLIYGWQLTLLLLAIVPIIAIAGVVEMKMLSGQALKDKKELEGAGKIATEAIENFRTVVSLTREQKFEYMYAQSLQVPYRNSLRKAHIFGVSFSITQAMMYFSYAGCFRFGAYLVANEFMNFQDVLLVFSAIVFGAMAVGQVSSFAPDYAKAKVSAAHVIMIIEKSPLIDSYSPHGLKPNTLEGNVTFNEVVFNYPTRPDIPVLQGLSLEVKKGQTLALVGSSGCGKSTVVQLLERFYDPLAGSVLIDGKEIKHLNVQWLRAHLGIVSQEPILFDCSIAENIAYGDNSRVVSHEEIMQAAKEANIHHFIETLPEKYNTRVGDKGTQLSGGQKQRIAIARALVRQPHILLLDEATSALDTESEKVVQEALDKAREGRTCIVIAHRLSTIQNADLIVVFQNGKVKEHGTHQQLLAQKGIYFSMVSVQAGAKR", "experiment": "P-glycoprotein competitive transport assay (rhodamine 123, MDCK PGP cells)", "type": "in vitro ADME", "settings": "highest concentration tested, 1,000 ng/mL", "method": "In this second study, a competitive P-gp substrate assay incorporating a canine P-gp expressing cell line is used to assess each test compound's ability to compete with the P-gp substrate rhodamine 123. Each concentration is tested on 3 separate days with same-day duplicates. Positive controls and negative controls are included in each run.\nResults for each concentration of test compound evaluated are reported as non-P-gp substrate, weak P-gp substrate, moderate P-gp substrate, or strong P-gp substrate. The concentrations for CBD and CBDA are as follows: 10 ng/mL, 100 ng/mL and 1,000 ng/mL.\nA competitive P-gp substrate assay using a canine P-gp expressing cell line was used to assess CBDA and/or CBD as a substrate for canine P-glycoprotein."}, "[2]": {"biological_target": "T2, CYP2D15 (Canis lupus familiaris, UniProt Q29473)", "T2 construct": "P450-specific marker activities in pooled dog liver microsomes; from tissue; host or cells: pooled dog liver microsomes", "T2 sequence (Q29473 1-500)": "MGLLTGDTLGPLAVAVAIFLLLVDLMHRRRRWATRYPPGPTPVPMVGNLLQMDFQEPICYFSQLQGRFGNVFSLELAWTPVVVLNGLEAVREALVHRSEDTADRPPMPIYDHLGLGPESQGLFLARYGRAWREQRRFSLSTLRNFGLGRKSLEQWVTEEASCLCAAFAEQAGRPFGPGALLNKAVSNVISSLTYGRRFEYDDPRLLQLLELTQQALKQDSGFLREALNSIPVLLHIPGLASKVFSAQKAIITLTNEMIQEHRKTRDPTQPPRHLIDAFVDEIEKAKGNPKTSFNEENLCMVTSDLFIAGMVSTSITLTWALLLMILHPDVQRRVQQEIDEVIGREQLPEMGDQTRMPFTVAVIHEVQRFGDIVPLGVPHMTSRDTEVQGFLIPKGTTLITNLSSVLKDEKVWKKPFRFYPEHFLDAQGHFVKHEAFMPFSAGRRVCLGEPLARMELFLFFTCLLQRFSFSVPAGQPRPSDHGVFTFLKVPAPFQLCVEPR", "experiment": "CYP2D15 activity inhibition in pooled dog liver microsomes", "type": "in vitro ADME", "settings": "no preincubation vs 20 min preincubation, 10 μM", "description": "Inhibition potency (i.e. IC50) is determined by measuring the decrement in metabolism of P450-specific marker activities in pooled dog liver microsomes with increasing concentrations of CBD, CBDA, and hemp extracts. P450-specific markers include bupropion 6-hydroxylation (CYP2B11), dextromethorphan 0-demethylation (CYP2D15) and omeprazole sulfoxidation (CYP3A12). IC50 values are determined both with and without preincubation of liver microsomes with potential inhibitor to evaluate whether there is mechanism-based time-dependent inhibition.\nThe following parameters are assessed: (1) the rates of CBD and CBDA metabolism by dog liver microsomes and by 11 recombinant canine P450 enzymes; (2) the predicted percent contribution of each P450 to total CBD and CBDA metabolism in dog liver; and (3) IC50 values for inhibition of CYP2B11, CYP2D15 and CYP3A12 metabolism in dog liver, both with and without inhibitor preincubation."}, "[3]": {"tested_on": "D17 cells", "experiment": "Trypan blue exclusion assay, D17", "type": "cell-based, canine", "settings": "48 hours, vehicle control 5±1%", "method": "(§1) The trypan blue exclusion assay is performed on canine primary dermal fibroblasts (CDF) because of the slow rate of proliferation and low metabolic activity of these normal canine cells, precluding productive MTT assays. The effects of CBD treatments are compared with the results obtained on the 17-71, CMT12 and D17 cell lines for comparative purposes. For the CDF cells, applied cell extracellular matrix (ABM) is applied overnight to 24-well tissue culture-treated plates (Applied Biological Materials [ABM], Richmond, BC, Canada). For all cell lines, cells are plated at a density of 5×10^3 cells per well and incubated until 60% confluent before treatment with methanol vehicle control, 3.75, 7.5, and 15 μg/mL of CBD to cells for 48 hours. Cells are then trypsinized, collected and centrifuged at 1900 g for 10 minutes. With the exception of the 17-71 cell line, cells are detached with Accumax (Invitrogen, Carlsbad, California). The cell pellet is resuspended in 0.1% trypan blue (Sigma Aldrich, St Louis, Missouri) in PBS solution, loaded on a Cell Countess disposable cell counting slide with automatic counting of all positively stained cells in the Countess II Cell Counter under identical settings for each cell line (Invitrogen; ThermoFisher Scientific, Carlsbad, California) using the same parameters for each cell line. All treatments are performed in triplicate and the percent of viable cells are averaged."}, "[4]": {"tested_on": "CMT12 cell line", "experiment": "Annexin V-FITC apoptosis assay, CMT12", "type": "cell-based, canine", "settings": "15 μg/mL CBD, VC 10.9±2.0%", "method": "Apoptosis after 4 and 8 hours treatment is measured using Annexin-V staining (Invitrogen Annexin V-FITC staining kit, Carlsbad, California). Briefly, cells are detached with Accumax (Innovative Cell Technologies, San Diego, California), collected and centrifuged for 10 m at 1000 g at 4° C. The pellet is washed once with PBS before resuspension in Annexin Binding Buffer (ABB; 10 mM HEPES, 140 mM NaCl, 2.5 mM CaCl2, pH 7.4) at a density of approximately 1×10^6 cell/mL. […] After the incubation, ABB is added to the cell suspension and kept on ice until fluorescence is measured with the BD FACScalibur flow cytometer using an argon laser (BD Biosciences, Ashland, Oregon). Ten thousand events are collected per sample. Analysis is performed with the FlowJo software (Version 10.7.1. Becton, Dickinson, Ashland, Oregon) by first gating based on the forward- and side-scatter characteristics for each cell line followed by Annexin V-FITC positive cells. Negative fluorescence controls are unstained cells. Three independent replicates are examined for each treatment."}, "[5]": {"tested_on": "canine primary dermal fibroblasts (CDF)", "experiment": "Trypan blue exclusion assay, dermal fibroblasts", "type": "cell-based", "settings": "48 hours, vehicle control 16±3%", "method": "as §1"}, "[6]": {"tested_on": "17-71 cells", "experiment": "Trypan blue exclusion assay, 17-71", "type": "cell-based, canine", "settings": "48 hours, vehicle control 3±1%", "method": "as §1"}},
  "data": [
    {"smiles": "C=C(C)[C@@H]1CCC(C)=C[C@H]1c1c(O)cc(CCCCC)cc1O", "note": "[CBD, cannabidiol]", "values": [
      {"measurement": "P-gp substrate classification", "setting": "[1]", "result": "not a substrate for canine PGP"},
      {"measurement": "time-dependent inhibition (TDI)", "setting": "[2]", "result": "showed time-dependent inhibition (TDI)"},
      {"measurement": "percent trypan blue positive cells", "setting": "[3]; 3.75 μg/mL CBD", "result": "4±2", "unit": "%"},
      {"measurement": "percent trypan blue positive cells", "setting": "[3]; 7.5 μg/mL CBD", "result": "5±2", "unit": "%"},
      {"measurement": "percent trypan blue positive cells", "setting": "[3]; 15 μg/mL CBD", "result": "35±4", "unit": "%"},
      {"measurement": "Annexin V positive staining cells", "setting": "[4]; 4 hours", "result": "15.7±2.2", "unit": "%"},
      {"measurement": "Annexin V positive staining cells", "setting": "[4]; 8 hours", "result": "21.5±2.5", "unit": "%"},
      {"measurement": "percent trypan blue positive cells", "setting": "[5]; 3.75 μg/mL CBD", "result": "32±5", "unit": "%"},
      {"measurement": "percent trypan blue positive cells", "setting": "[5]; 7.5 μg/mL CBD", "result": "58±7", "unit": "%"},
      {"measurement": "percent trypan blue positive cells", "setting": "[5]; 15 μg/mL CBD", "result": "77±12", "unit": "%"},
      {"measurement": "percent trypan blue positive cells", "setting": "[6]; 3.75 μg/mL CBD", "result": "7±4", "unit": "%"},
      {"measurement": "percent trypan blue positive cells", "setting": "[6]; 7.5 μg/mL CBD", "result": "27±8", "unit": "%"},
      {"measurement": "percent trypan blue positive cells", "setting": "[6]; 15 μg/mL CBD", "result": "55%±6%"}
    ]}
  ]
}
